Source: patent US20250268844A1, “ANTICANCER AGENTS BASED ON CYCLOPENTENONES” (UNIVERSITY OF CRETE, priority 2022, published 2025)
Entries after “also recorded” stand apart in the source; their conditions may differ.

Experiments:
[1] = system: p53; assay: p53 immunoblot in AGE60 cells; assay type: cell-based, human; conditions: 2.5 μM, 6 or 14 hr
Method: (§1) FIG. 8: Enones induce the p53 pathway. […] Cell lysates were analyzed for p53 and GAPDH (loading control). (B) A2780 cells were cultured in the presence or absence of 2.5 μM for the indicated time points before being analyzed for p53 and GAPDH levels. (C) Treatment of A2780 cells with 2.5 μM Enone-2 results in the up-regulation of p53-regulated genes (*p<0.05; **p<0.01; ***p<0.001, n=4). (D) Induction of p53 accumulation in AGE60 ovarian carcinoma cells following 6 or 14 hr exposure to 2.5 μM Enone-2. (E) Enone-1 induces the p53 pathway in A2780 cells which were cultured in the presence of 2.5 μM of the drug and analyzed as in (B). (F) Treatment of A2780 cells with 2.5 μM Enone-2 results in the up-regulation of p53-regulated genes (*p<0.05; **p<0.01; ***p<0.001, n=3).
(§2) The effects of Enone-2 on p53 and p53-dependent transcription of cell cycle and cell death-associated genes was confirmed by immunoblotting for p53 and by reverse transcription qPCR (RT-qPCR) for mdm2, p21, bax and bbc3/puma, established p53 target genes.

[2] = system: Mac2a anaplastic large cell lymphoma cells; assay: MTT conversion assay, Mac2a; assay type: cell-based; conditions: Homo sapiens, ALCL, 48 hrs treatment
Method: (§3) In particular, Enone-1 and Enone-2 were tested for cytotoxic activity in 17 cell lines representing a broad spectrum of human tumors. They include human colorectal carcinoma (Caco2, RKO, HCT15, HT29), liver (HepG2), lung (A549), ovarian carcinoma (A2780, 2780CP, AGE60, SKOV3), anaplastic large cell lymphoma (Mac1 and Mac2a), breast carcinoma (MDA-MB-231), cervical (HeLa), bladder cancer (VM-CUB-1), melanoma (BRO), and multiple myeloma (MR20).
(§4) Each assay was performed in triplicate and repeated in 2-3 independent experiments. Specifically, to measure cell survival, 20 μl of 10 mg/ml MTT (3-([…])-2,5-diphenyl tetrazolium bromide; Sigma) was added to each well and the plates were incubated at 37° C. in 5% CO2 for 3 hours. The supernatant was removed and the formed crystals were dissolved in 200 μl dimethyl sulphoxide. The plates were then analysed at 450 nm on a plate reader. Growth inhibition (reduction in survival) was calculated by expressing the differences in optical densities between treatment wells and control wells as a percentage of the control.

[3] = system: RKO colorectal carcinoma cells; assay: MTT conversion assay, RKO; assay type: cell-based, human; conditions: Homo sapiens, colon, 48 hrs treatment
Method: as §3, §4

[4] = system: AGE60 ovarian carcinoma cells; assay: MTT conversion assay, AGE60; assay type: cell-based, human; conditions: Homo sapiens, Ovarian carcinoma cell, 48 hrs treatment
Method: as §3, §4

[5] = system: HepG2 liver cells; assay: MTT conversion assay, HepG2; assay type: cell-based, human; conditions: Homo sapiens, 48 hrs treatment
Method: as §3, §4

[6] = system: HCT15 colorectal carcinoma cells; assay: MTT conversion assay, HCT15; assay type: cell-based, human; conditions: Homo sapiens, HCT-15, HCT15, colon, 48 hrs treatment
Method: as §3, §4

[7] = system: A2780 ovarian cancer cells; assay: PrestoBlue cell viability assay; assay type: cell-based, human; conditions: Homo sapiens, 72 hrs treatment, n=3 experiments
Method: The effects of Enone-1 and Enone-2 on cancer cells were confirmed using a second methodology, namely the PrestoBlue assay (PrestoBlue™ Cell Viability Reagent, Thermo Fisher, Catalog number: A13261), a cell permeable resazurin-based solution that functions as a cell viability indicator. A2780 ovarian cancer cells were plated as described above for the MTT assays and Enone drugs were added at increasing concentrations as indicated in FIG. 2. Cell viability was determined 72 hrs later following the addition of PrestoBlue, according to the manufacturer's instructions (Thermo Fisher).

[8] = system: Mac1 anaplastic large cell lymphoma cells; assay: MTT conversion assay, Mac1; assay type: cell-based; conditions: Homo sapiens, Mac1, ALCL, 48 hrs treatment
Method: as §3, §4

[9] = system: MB49 mouse bladder carcinoma cells; assay: MTT assay, MB49; assay type: cell-based; conditions: 48 hrs
Method: FIG. 5: Effects of enone compounds on mouse tumor growth.
as §4
First, the impact of Enone-1 and Enone-2 on the survival of MB49 cells was verified by MTT assays performed as described in FIG. 1.

[10] = system: p53; assay: p53 immunoblot in A2780 cells; assay type: cell-based, human; conditions: 2.5 μM or increasing concentrations, 6 hrs or time course
Method: as §1, §2

[11] = system: A2780 ovarian carcinoma cells; assay: MTT conversion assay, A2780; assay type: cell-based, human; conditions: Homo sapiens, 48 hrs treatment
Method: as §3, §4

[12] = system: A2780 ovarian carcinoma cells; assay: Clonogenic assay; assay type: cell-based, human; conditions: 12 hours treatment with 2.5 μM or 5.0 μM, colonies on day 10, compared with cis-platin
Description: The long-term effects of Enone-2 on tumor cell survival were examined by using clonogenic assays which assess the ability of single cells to survive and reproduce to form colonies. […] The colonies formed on day 10 were visualized by staining with crystal violet following cell fixation and enumerated.

[13] = system: CDC6; assay: CDC6 protein (immunoblot) and RNA (RT-qPCR) levels in A2780 cells; assay type: cell-based, human; conditions: 2.5 μM for 6 or 14 hours
Method: FIG. 4. Effects of Enone-2 on cell cycle and on the expression levels of replication licensing factors (RLF). (A) Representative cell cycle profiles showing progressive accumulation of A2780 ovarian carcinoma cells in the G2/M phase of the cell cycle following 24 hour treatment with 2.5 or 5 μM Enone-2. Quantification of results is shown in the form of pie charts on the right. PI: propidium iodide. (B) & (C) A2780 cells were treated with 2.5 μM Enone-2 for 6 or 14 hours and analyzed for CDC6 protein levels by immunoblot (B), or RNA levels by reverse transcription qPCR (C). The RNA levels of the RLF CDT1 were also measured by qPCR (C). ***P<0.001; **P<0.01.
Replication licensing factors (RLF) such as CDC6, MCM2-MCM7, ORC and CDT1 form origins of DNA replication in the G1 phase of the cell cycle and initiate DNA replication during the S phase. CDC6 is also involved in S-M checkpoint mechanisms that ensure that the entire genome is replicated just once per cell division. Cancer cells frequently display deregulated expression of RLFs; for example, CDC6 is over-expressed in colorectal and ovarian carcinoma and is associated with poor patient prognosis. […] Because of these characteristics, RLFs are considered as novel targets for anti-cancer therapy. […]

SMILES: C[C@@]1(O)C=CC(=O)[C@H]1c1ccc(F)c2ccccc12 (stereo in doubt) [Enone-2, 5-(4-fluoronaphthalen-1-yl)-4-hydroxy-4-methylcyclopent-2-en-1-one]
- p53 accumulation (immunoblot) [1]: robust p53 accumulation
- IC50 [2]: 2.3 µM
- IC50 [3]: 1.2 µM
- IC50 [4]: 1.2 µM
- IC50 [5]: 3 µM
- IC50 [6]: 0.9 µM
- IC50 [7]: 0.12 µM
- IC50 [8]: 1.8 µM
- IC50 [9]: 0.6 µM
- p53 accumulation (immunoblot) [10]: robust p53 accumulation; also recorded: robustly induced p53 accumulation
- IC50 [11]: 0.5 µM
- number of colonies formed [12]: lower than the equivalent dose of cis-platin
- CDC6 RNA and protein levels [13]: reduce the key RLF CDC6 in a time-dependent manner at both RNA and protein levels
